Laboratory results as given in publication PMC4290037, “Purification and Characterization of Glucose-6-Phosphate Dehydrogenase from Camel Liver” (Enzyme Research, 2014).

Biological target: T1, Glucose-6-phosphate dehydrogenase (camel liver G6PD) (Camelus dromedarius, UniProt G1EHI3)
T1 construct: native enzyme purified from camel liver (subunit 64 kDa, native 194 kDa)
Experiment: enzyme inhibition kinetics of purified enzyme (Lineweaver-Burk, Hill plot, slope replot)
Format: biochemical

T1 sequence (G1EHI3 entry or part of it): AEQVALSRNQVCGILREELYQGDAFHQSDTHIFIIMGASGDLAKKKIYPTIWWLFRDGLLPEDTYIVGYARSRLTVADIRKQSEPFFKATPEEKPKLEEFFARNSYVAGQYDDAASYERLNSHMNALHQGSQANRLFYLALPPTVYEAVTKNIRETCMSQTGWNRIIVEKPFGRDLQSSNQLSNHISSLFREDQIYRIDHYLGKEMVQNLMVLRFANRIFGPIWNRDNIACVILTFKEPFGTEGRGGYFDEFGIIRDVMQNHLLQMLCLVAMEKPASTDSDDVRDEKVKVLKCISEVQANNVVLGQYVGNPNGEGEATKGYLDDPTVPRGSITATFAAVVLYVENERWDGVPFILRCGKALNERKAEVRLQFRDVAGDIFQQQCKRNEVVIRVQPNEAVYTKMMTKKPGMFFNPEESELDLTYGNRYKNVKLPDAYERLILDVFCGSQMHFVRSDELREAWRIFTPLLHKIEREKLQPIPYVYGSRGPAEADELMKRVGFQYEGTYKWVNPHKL

Ki: 35 µM
SMILES: NC(=O)C1=CN([C@@H]2O[C@H](COP(=O)(O)OP(=O)(O)OC[C@H]3O[C@@H](n4cnc5c(N)ncnc54)[C@H](OP(=O)(O)O)[C@@H]3O)[C@@H](O)[C@H]2O)C=CC1 [NADPH]
